Measurements reported in US6569888B1, “Anti-inflammatory indole derivatives” (AstraZeneca AB, priority 1999, dated 2003).
Read-outs that look alike come from different tables or passages of the source. Values belong to the molecule of their own block, whether it stands above or below them.

Legend:
MCP-1 receptor B (CCR2B) = biological target: T1, MCP-1 receptor B (CCR2B) (Homo sapiens, UniProt P41597); assay: hMCP-1 receptor binding assay (125I-MCP-1, CHO-CCR2B cell membranes)
T1 construct: expressed in transfected cells; host or cells: CHO-K1 (clone 7, CHO-CCR2B), membrane fragments
T1 sequence (P41597 1-360 isoform P41597-2): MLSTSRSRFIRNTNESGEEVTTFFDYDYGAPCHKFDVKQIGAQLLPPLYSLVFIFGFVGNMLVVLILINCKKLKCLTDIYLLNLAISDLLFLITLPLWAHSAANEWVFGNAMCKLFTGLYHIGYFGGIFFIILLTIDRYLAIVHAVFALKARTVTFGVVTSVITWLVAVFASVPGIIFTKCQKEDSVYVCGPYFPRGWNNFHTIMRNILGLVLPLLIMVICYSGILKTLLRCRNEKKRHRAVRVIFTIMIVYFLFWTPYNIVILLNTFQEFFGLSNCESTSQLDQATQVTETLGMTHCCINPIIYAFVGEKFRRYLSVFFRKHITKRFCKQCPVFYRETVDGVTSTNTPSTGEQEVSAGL
Source text: The MCP-1 receptor B (CCR2B) cDNA was cloned by PCR from THP-1 cell RNA using suitable oligonucleotide primers based on the published MCP-1 receptor sequences (Charo et al., 1994, Proc. Natl. Acad. Sci. USA, 91, 2752). The resulting PCR products were cloned into vector PCR-II™ (In Vitrogen, San Diego, Calif.). Error free CCR2B cDNA was subcloned as a Hind III-Not I fragment into the eukaryotic expression vector pCDNA3 (In Vitrogen) to generate pCDNA3/CC-CKR2A and pCDNA3/CCR2B respectively.
Linearised pCDNA3/CCR2B DNA was transfected into CHO-K1 cells by calcium phosphate precipitation (Wigler el al., 1979, Cell, 16, 777). Transfected cells were selected by the addition of Geneticin Sulphate (G418, Gibco BRL) at 1 mg/ml, 24 hours after the cells had been transfected. Preparation of RNA and Northern blotting were carried out as described previously (Needham et al., 1995, Prot. Express. Purific., 6, 134). CHO-K1 clone 7 (CHO-CCR2B) was identified as the highest MCP-1 receptor B expresser. […]
^125I MCP-1 was prepared using Bolton and Hunter conjugation (Bolton et al. 1973, Biochem. J., 133, 529; Amersham International plc]. Equilibrium binding assays were carried out using, the method of Ernst et al., 1994, J. Immunol., 152, 3541. Briefly, varying amounts of ^125I-labeled MCP-1 were added to 7 μg of purified CHO-CCR2B cell membranes in 100 μl of Binding Buffer. After 1 hour incubation at room temperature the binding reaction mixtures were filtered and washed 5 times through a plate washer (Brandel MLR-96T Cell Harvester) using ice cold Binding Buffer. Filter mats (Brandel GF/B) were pre-soaked for 60 minutes in 0.3% polyethylenimine prior to use. Following filtration individual filters were separated into 3.5 ml tubes (Sarstedt No. 55.484) and bound ^125I-labeled MCP-1 was determined (LKB 1277 Gammamaster). […] Non-specific binding was determined by the inclusion of a 200-fold molar excess of unlabelled MCP-1 in the reaction. […]

THP-1 cells [1] = assay: hMCP-1 mediated chemotaxis; format: cell-based, human
Method: (§1) In vitro chemotaxis assays were performed using the human monocytic cell line THP-1. Cell migration through polycarbonate membranes was measured by enumerating those passing through either directly by Coulter counting or indirectly by use of a colourimetric viability assay measuring the cleavage of a tetrazolium salt by the mitochondrial respiratory chain (Scudiero D. A. et al. 1988, Cancer Res., 48, 4827-4833).
(§2) Chemoattractants were introduced into a 96-well microtitre plate which forms the lower well of a chemotaxis chamber fitted with a PVP-free 5 μm poresize polycarbonate adhesive framed filter membrane (NeuroProbe MB series, Cabin John, Md. 20818, USA) according to the manufacturer's instructions. […] The plate was incubated at 37° C. for 3 h and the absorbance of the soluble formazan product was read on a microtitre plate reader at 450 nm. The data was input into a spreadsheet, corrected for any random migration in the absence of chemoattractant and the average absorbance values, standard error of the mean, and significance tests were calculated. hMCP-1 induced concentration dependent cell migration with a characteristic biphasic response, maximal […]. […]

THP-1 cells [2] = assay: RANTES mediated chemotaxis; format: cell-based; conditions: Homo sapiens, RANTES 2 nM, Calcein AM tagged cells
Method: as §1, §2

THP-1 cells [3] = assay: MCP-1 mediated calcium flux in THP-1 cells; format: cell-based, human; conditions: stimulation of THP-1 cells with hMCP-1, FURA-2; read-out: EC50 of rise in [Ca2+]i
Method: The human monocytic cell line THP-1 was grown in a synthetic cell culture medium RPMI 1640 supplemented with 10% foetal calf serum, 6 mM glutamine and Penicillin-Streptomycin (at 50 μg streptomycin/ml, Gibco BRL). THP-1 cells were washed in HBSS (lacking Ca^2+ and Mg^2+)+1 mg/ml BSA and resuspended in the same buffer at a density of 3×10^6 cells/ml. The cells were then loaded with […] FURA-2/AM for 30 min at 37° C., washed twice in HBSS, and resuspended at 1×10^6 cells/ml. THP-1 cell suspension (0.9 ml) was added to a 5 ml disposable cuvette containing a magnetic stirrer bar and 2.1 ml of prewarmed (37° C.) HBSS containing 1 mg/ml BSA. 1 mM MgCl2 and 2 mM CaCl2. The cuvette was placed in a fluorescence spectrophotometer (Perkin Elmer, Norwalk, Conn.) and preincubated for 4 min at 37° C. with stirring. Fluorescence was recorded over 70 sec and cells were stimulated by addition of hMCP-1 to the cuvette after 10 sec. [Ca^2+]i was measured by excitation at 340 nm and 380 nm alternately and subsequent measurement of the intensity of the fluorescence emission at 510 nm.
where the Kd for FURA-2 Ca^2+ complex at 37° C. was taken to be 224 nm. […]

IC50 (MCP-1 receptor B (CCR2B); competition with 100 pM labelled MCP-1, CHO-CCR2B membranes, 0.01-50 μM, duplicate eight point curves, read-out: IC50 in the hMCP-1 receptor binding assay): 2300 nM
Molecule: O=C(O)COc1cccc2c1cc(C(=O)O)n2Cc1ccc(F)c(F)c1 [Compound 5, N-(3,4-Difluorobenzyl)-4-(carboxymethoxy)indole-2-carboxylic Acid]

IC50 (THP-1 cells [1]; Homo sapiens, 1 nM MCP-1): 12800 nM
Molecule: COc1ccc2c(cc(C(=O)O)n2Cc2ccc(Cl)c(Cl)c2)c1OCC(=O)O [Compound 9, N-(3,4-Dichlorobenzyl)-5-methoxy-4-(carboxymethoxy)indole-2-carboxylic Acid]

IC50 (THP-1 cells [2]): 3640 nM
Molecule: O=C(O)c1cc2c(OCCCO)cccc2n1Cc1ccc(Cl)c(Cl)c1 [Compound 15, N-(3,4-Dichlorobenzyl)-4-(3-hydroxypropoxy)indole-2-carboxylic Acid]

IC50 (MCP-1 receptor B (CCR2B); cold competition, 100 pM 125I-labeled MCP-1, CHO-CCR2B membrane fragments, read-out: IC50 of MCP-1 binding to CCR2B receptor): 0.11 nM
Kd (MCP-1 receptor B (CCR2B); equilibrium binding, CHO-CCR2B membrane fragments): 0.12 nM
EC50 (THP-1 cells [3]): ~2 nM
Molecule: MCP-1: Human Monocyte Chemoattractant Protein-1, chemokine ligand of the CCR2 receptor
concentration of maximal cell migration (biphasic response) (THP-1 cells [1]; hMCP-1 as chemoattractant): 0.5-1.0 nm
